Test results reported in ChEMBL document CHEMBL1201862, “PubChem BioAssay data set” (2004).
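Briefly, cells in 96-well plates were exposed to five compound concentrations for 48 h, and endpoints were estimated by linear interpolation. At the GI50, growth is halved.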 Activity calls are given as the source filed them. Cut-off read from the data, not from the text of the source: active = GI50 up to about 1.1 µM and inactive = higher.

Assays:
Experiment in all cases: DTP human tumour cell line panel, 48 h
BT-549 = tested on: BT-549
M19-MEL = tested on: M19-MEL
HOP-18 = tested on: HOP-18
RXF 631 = tested on: RXF 631
SNB-78 = tested on: SNB-78
DMS-273 = tested on: DMS-273
KM-20L2 = tested on: KM-20L2
LXFL 529 = tested on: LXFL 529
XF498 = tested on: XF498

Row | Structure (SMILES) | GI50 (BT-549) | GI50 (M19-MEL) | GI50 (DMS-273) | GI50 (KM-20L2) | also measured
1 | O=C(/C=C/c1ccccc1)Oc1ccc(C(=O)/C=C/c2ccccc2)cc1 | 6.49 µM (inactive) |  |  |  | 
2 | COC(=O)/C=C1/N=C(N(C)/N=C/c2ccccc2)NC1=O | > 100 µM (inactive) |  |  |  | 
3 | Cc1sc2nc(-c3ccc(Cl)c([N+](=O)[O-])c3)c(/C=N/NC(=N)N)n2c1C | 1.7 µM (inactive) |  |  |  | 
4 | C=CCC(CNC(=O)OCc1ccccc1)OC(=O)OCc1ccccc1 (stereo unspecified) | > 100 µM (inactive) |  |  |  | 
5 | CCCCCC(C)C[C@H]1CO[C@H](c2ccc[nH]2)N[C@H]1C(=O)OC (stereo partly specified) | > 100 µM (inactive) |  |  |  | 
6 | CN(C)c1ccc(/C=N/NC2=N/C(=C\c3ccco3)C(=O)N2)cc1 | > 100 µM (inactive) |  |  |  | 
7 | CCCC(=O)N[C@H]1CCc2cc(OC)c(OC)c(OC)c2-c2ccc(SC)c(=O)cc21 | < 0.01 µM (active) | < 0.01 µM (active) | < 0.01 µM (active) | < 0.01 µM (active) | GI50 (HOP-18): > 35.8 µM (inactive); GI50 (RXF 631): < 0.01 µM (active); GI50 (SNB-78): < 0.01 µM (active); GI50 (LXFL 529): < 0.01 µM (active)
8 | Clc1ccccc1C(Nc1cnccn1)Nc1cnccn1 | > 100 µM (inactive) |  |  |  | 
9 | O=c1c2ccccc2nc(-c2cccc([N+](=O)[O-])c2)n1O | 12 µM (inactive) |  |  |  | 
10 | O=C1NC(=O)C(c2c[nH]c3cc(Br)ccc23)=C1c1cnc[nH]1 | 13.5 µM (inactive) |  |  |  | 
11 | COc1ccc(/C=C/c2nnc(S)[nH]2)cc1 |  | > 100 µM (inactive) | > 100 µM (inactive) | > 100 µM (inactive) | GI50 (RXF 631): > 100 µM (inactive); GI50 (SNB-78): > 100 µM (inactive); GI50 (XF498): 79.3 µM (inactive); GI50 (LXFL 529): > 100 µM (inactive)
12 | Clc1ccc(/C=C/c2nc(-c3ccccc3)cn3c2nc2ccccc23)cc1Cl | 61.7 µM (inactive) |  |  |  | 
13 | Cc1ccc(N/N=C2\C3=C(CCC(C)(C)O3)C(=O)c3ccccc32)cc1 | 26.1 µM (inactive) |  |  |  | 
14 | Cc1nc(Nc2ccccc2)sc1C(=O)CC(=O)C(=O)Nc1c(C(C)C)cccc1C(C)C |  | > 100 µM (inactive) | > 100 µM (inactive) | 85.1 µM (inactive) | GI50 (HOP-18): > 100 µM (inactive); GI50 (SNB-78): > 100 µM (inactive); GI50 (XF498): > 100 µM (inactive); GI50 (LXFL 529): 60 µM (inactive)
15 | COC(=O)[C@H](C)N1C(=O)N[C@@H](C(C)C)C1=O | > 100 µM (inactive) |  |  |  | 
16 | O=C(O[C@H]1[C@@H]2C=CO[C@@H](OC3OC(CO)C(O)C(O)C3O)[C@@H]2[C@@]2(CO)O[C@@H]12)c1ccc(O)c(O)c1 (stereo partly specified) |  | > 100 µM (inactive) | > 100 µM (inactive) | > 100 µM (inactive) | GI50 (SNB-78): > 100 µM (inactive); GI50 (XF498): 41.5 µM (inactive); GI50 (LXFL 529): > 100 µM (inactive)
17 | CC(=O)NNc1nc(C)c(C(=O)/C=C/c2ccc(N(C)C)cc2)s1 |  |  | > 100 µM (inactive) | > 100 µM (inactive) | GI50 (HOP-18): > 100 µM (inactive); GI50 (RXF 631): > 100 µM (inactive); GI50 (SNB-78): > 100 µM (inactive)
18 | CC1(C)CC(C2CC(C)(C)CC(C)(C)[C@H]2O)[C@@H](O)C(C)(C)C1 (stereo partly specified) |  | > 100 µM (inactive) | > 100 µM (inactive) | > 100 µM (inactive) | GI50 (XF498): > 100 µM (inactive); GI50 (LXFL 529): > 100 µM (inactive)
19 | Cc1ccc2c(c1)C(=O)C(Cc1ccccc1C(=O)O)C2 (stereo unspecified) | > 100 µM (inactive) |  |  |  | 
20 | CCOc1ccc(NC(=O)C(=O)CC(=O)C2=C(C)Nc3ccccc3S2)cc1 |  | > 50 µM (inactive) |  | > 50 µM (inactive) | GI50 (HOP-18): > 50 µM (inactive); GI50 (RXF 631): > 50 µM (inactive); GI50 (XF498): > 50 µM (inactive)
21 | NC1=NC(c2ccc(Cl)cc2)N(c2ccc(S(=O)(=O)Nc3ncccn3)cc2)C(N)=N1 (stereo unspecified) | > 100 µM (inactive) |  |  |  | 
22 | CN1CCN(Cc2ccccc2)CC1CC#N (stereo unspecified) | > 100 µM (inactive) |  |  |  | 
23 | CN1C[C@@H]2CCCN2P1Oc1cccc2cccnc12 (stereo partly specified) | > 100 µM (inactive) |  |  |  | 
24 | C#CC[N+](C)(CC#C)CC#C |  | > 100 µM (inactive) | > 100 µM (inactive) | > 100 µM (inactive) | GI50 (RXF 631): > 100 µM (inactive); GI50 (SNB-78): > 100 µM (inactive); GI50 (XF498): > 100 µM (inactive); GI50 (LXFL 529): > 100 µM (inactive)
25 | Oc1c(CN2CCN(c3ccccc3)CC2)cc(Br)c2cccnc12 | 7.52 µM (inactive) |  |  |  | 
26 | Cc1ccc(C2=C(c3ccccc3)C(O)(c3ccc(C)cc3)C(c3ccccc3)=C2c2ccc(C)cc2)cc1 |  | > 100 µM (inactive) | > 100 µM (inactive) | > 100 µM (inactive) | GI50 (SNB-78): > 100 µM (inactive); GI50 (XF498): > 100 µM (inactive); GI50 (LXFL 529): 60.1 µM (inactive)
27 | COc1cc(C=O)c(-c2cc(OC)c(OC)cc2C=O)cc1OC |  | > 100 µM (inactive) | > 100 µM (inactive) | > 100 µM (inactive) | GI50 (HOP-18): > 100 µM (inactive); GI50 (SNB-78): > 100 µM (inactive); GI50 (LXFL 529): > 100 µM (inactive)
28 | CC1C(c2ccccc2O)c2cc3c(cc2OC1N1CCOCC1)OCO3 (stereo unspecified) | 27.4 µM (inactive) |  |  |  | 
29 | O=C1c2cn[nH]c2N=C(Nc2ccccc2)C1/N=C/c1ccc([N+](=O)[O-])cc1 (stereo unspecified) | > 10 µM (inactive) |  |  |  | 
